Measured values taken from patent publication US12122816B2, “Long acting peptide tyrosine tyrosine (PYY) analogs and methods of use” (Intarcia Therapeutics, Inc., priority 2020, dated 2024).
Starred links: 1 amine or outer side, 2 acyl side, 3 side chain; linkers in the order of their positions; H or OH if unused. Positions of bridges follow the written chain, without caps; N, C: chain ends. Residues, ends and D or L forms follow the SMILES beside them. Groups on a side chain read outwards from the residue. No end group written: not given here. *: point of attachment. C19 diacid = O=C(O)CCCCCCCCCCCCCCCCCC(=O)*; γGlu = O=C(O)[C@H](CCC(=O)[*:2])N[*:1]

Assays:
human Y2 receptor = molecular target: T1, human Y2 receptor (Homo sapiens, UniProt P49146); assay: NPY receptor functional assay (cAMP, HEK-CNG cells, ACTOne membrane potential dye); assay type: cell-based; details: NPY2R pEC50, HEK-CNG cells; standard PYY(3-36); species (human or rat) not given
T1 sequence (P49146 1-381): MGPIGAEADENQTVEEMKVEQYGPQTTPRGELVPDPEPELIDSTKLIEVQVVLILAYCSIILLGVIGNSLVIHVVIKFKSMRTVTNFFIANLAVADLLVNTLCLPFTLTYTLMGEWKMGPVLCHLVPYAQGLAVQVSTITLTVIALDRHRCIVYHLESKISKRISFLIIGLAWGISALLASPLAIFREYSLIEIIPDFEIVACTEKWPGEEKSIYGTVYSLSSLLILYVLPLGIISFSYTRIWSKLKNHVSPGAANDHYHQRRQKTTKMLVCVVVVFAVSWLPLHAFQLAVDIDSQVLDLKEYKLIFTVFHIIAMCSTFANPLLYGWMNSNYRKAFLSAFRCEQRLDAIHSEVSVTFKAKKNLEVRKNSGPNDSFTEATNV
Procedure, shortened: (§1)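 HEK-CNG cells stably expressing each human receptor; peptides added in triplicate for 50 minutes at room temperature, with agonism read as decreased isoproterenol-induced membrane potential dye signal (final/initial read).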

human Y4 receptor = human Y4 receptor (Homo sapiens, UniProt P50391); assay: as above; assay type: cell-based; details: standard PP, species (human or rat) not given
Procedure, shortened: as §1

[1] = Intravenous infusion pharmacokinetics to assess clearance (CL); assay type: in vivo, Sprague-Dawley rats; details: male, Sprague-Dawley, plasma, rat, 1-hour IV infusion, 0.033 mg/kg
Description: Peptides were dissolved in 0.05% Tween-20 in PBS (pH7.4) and administered as a 1-hour subcutaneous infusion to non-fasted male Sprague-Dawley rats (n=3 per group) at a final dose of 0.033 mg/kg via a cannula placed into the femoral vein. Formulations were administered at a rate of 0.150 mL/h/kg. […] Plasma was prepared by centrifugation and stored at −80° C. until analysis.
(§2) A 70 μL aliquot of each plasma sample was placed into to a 96-well plate. To each well was added 210 μL of 0.1% TFA in 2:1 ethanol:acetonitrile containing an appropriate internal standard. Plates were vortex mixed for 10 min at 1300 rpm, and then centrifuged for 10 min at 500×g. Supernatants (210 μL) were placed into a clean 96-well plate and evaporated under a nitrogen stream at 45° C. Residues were reconstituted in 80 μL of 20% acetonitrile (aq) containing 0.1% formic acid.
(§3) All calibration standards were prepared in control rat plasma containing K2EDTA and protease inhibitor cocktail.
(§4) Samples were injected onto a 2.1×50 mm reverse phase C18 analytical column, typically a Waters CORTECS UPLC C18+, 1.6 μm (Waters Corporation, Milford, MA) or similar. […] Typical flow rates were 550 μL/min. The column temperature was held constant at 45° C. Peptides were quantified by monitoring one or more product ions produced from a multiply charged parent ion.

[2] = Subcutaneous bolus injection pharmacokinetics to assess bioavailability (F); assay type: in vivo, Sprague-Dawley rats; details: male, Sprague-Dawley, plasma; rat, SC bolus 0.1 mg/kg
Description: Peptides were dissolved in sterile saline and administered to non-fasted male Sprague-Dawley rats (n=3 per group) at a dose of 0.1 mg/kg via a single bolus injection into the subcutaneous space between the scapulae. […] Plasma was prepared by centrifugation and stored at −80° C. until analysis.
as §2, §3, §4

[3] = cited from earlier work
[4] = Solubility in DI water at room temperature (visual inspection); assay type: physicochemical; details: TFA salt form
Description: The analog polypeptides described herein were tested for solubility in saline or in aqueous (DI water) at room temperature. Samples were visually inspected for clarity of the sample, any appearance of turbidity or haziness.

[5] = Stability in water or saline (1 mg/ml) at 37° C., purity by LC/MS and HPLC; assay type: physicochemical; details: TFA salt form
human Y5 receptor = molecular target: T2, human Y5 receptor (Homo sapiens, UniProt Q15761); assay: NPY receptor functional assay (cAMP, HEK-CNG cells, ACTOne membrane potential dye); assay type: cell-based; details: NPY5R pEC50, HEK-CNG cells; standard NPY; species (human or rat) not given
T2 sequence (Q15761 1-445): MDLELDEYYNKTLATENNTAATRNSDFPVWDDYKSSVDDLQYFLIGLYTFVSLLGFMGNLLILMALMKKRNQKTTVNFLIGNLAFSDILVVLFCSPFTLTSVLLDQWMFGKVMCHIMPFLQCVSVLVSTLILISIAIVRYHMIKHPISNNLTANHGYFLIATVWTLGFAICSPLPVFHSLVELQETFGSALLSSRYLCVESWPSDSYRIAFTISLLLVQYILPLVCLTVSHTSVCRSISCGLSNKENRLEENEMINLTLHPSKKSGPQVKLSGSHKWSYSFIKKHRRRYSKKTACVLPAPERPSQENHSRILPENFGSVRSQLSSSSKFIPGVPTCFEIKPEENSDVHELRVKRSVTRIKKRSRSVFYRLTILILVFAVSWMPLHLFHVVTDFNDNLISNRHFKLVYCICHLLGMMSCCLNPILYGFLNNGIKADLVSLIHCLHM
Procedure, shortened: as §1

Chain of human Y4 receptor (P50391 whole entry): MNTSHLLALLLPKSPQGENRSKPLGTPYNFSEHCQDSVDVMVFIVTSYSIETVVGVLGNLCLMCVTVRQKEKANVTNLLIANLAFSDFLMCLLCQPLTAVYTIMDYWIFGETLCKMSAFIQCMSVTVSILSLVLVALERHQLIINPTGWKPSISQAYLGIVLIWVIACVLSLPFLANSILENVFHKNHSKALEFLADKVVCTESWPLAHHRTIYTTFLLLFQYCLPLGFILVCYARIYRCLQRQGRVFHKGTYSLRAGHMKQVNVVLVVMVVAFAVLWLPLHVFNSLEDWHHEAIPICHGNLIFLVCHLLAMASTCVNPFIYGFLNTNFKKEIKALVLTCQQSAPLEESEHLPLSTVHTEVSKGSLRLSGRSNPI

CC(C)C[C@H](NC(=O)[C@H](Cc1ccc(O)cc1)NC(=O)[C@H](Cc1c[nH]cn1)NC(=O)[C@H](CCCNC(=N)N)NC(=O)[C@H](C)NC(=O)[C@H](CC(=O)O)NC(=O)[C@H](C)NC(=O)[C@H](Cc1ccc(O)cc1)NC(=O)[C@H](Cc1ccc(O)cc1)NC(=O)[C@H](CCCNC(=N)N)NC(=O)[C@H](CC(N)=O)NC(=O)[C@H](Cc1c[nH]c2ccccc12)NC(=O)[C@H](CCC(=O)O)NC(=O)[C@H](CCC(=O)O)NC(=O)[C@@H]1CCCN1C(=O)[C@H](CO)NC(=O)[C@H](C)NC(=O)[C@H](CC(=O)O)NC(=O)[C@H](CCCCN)NC(=O)[C@H](CCCCNC(=O)CC[C@H](NC(=O)CC[C@H](NC(=O)CCCCCCCCCCCCCCCCCCC(=O)O)C(=O)O)C(=O)O)NC(=O)[C@@H]1CCCN1C(=O)[C@H](C)NC(=O)[C@H](CCC(=O)O)NC(=O)[C@@H]1CCCN1C(=O)[C@H](CCCCN)NC(=O)[C@@H]1CCCN1)C(=O)N[C@@H](CC(N)=O)C(=O)N[C@@H](Cc1c[nH]c2ccccc12)C(=O)N[C@@H](CC(C)C)C(=O)N[C@H](C(=O)N[C@@H](CCCNC(=N)N)C(=O)N[C@@H](CCC(N)=O)C(=O)N[C@@H](CCCNC(=N)N)C(=O)N(C)[C@@H](Cc1ccc(O)cc1)C(N)=O)[C@@H](C)O [Compound A7]
EC50 (human Y2 receptor): 0.2 nM
NPY4R pEC50 (human Y4 receptor): inactive
clearance [1]: 0.326 mL/min/kg
half-life ([1]; read-out: IV t1/2 (converted)): 386 min
bioavailability [2]: 66.7%

human amylin: 37-residue polypeptide hormone co-secreted with insulin from pancreatic β-cells (KCNTATCATQRLANFLVHSSNNFGAILSSTNVGSNTY; not fully specified (C-terminus, bridges); cysteine pairing not given here; UniProt P10997 34-70, looked up)
half-life in serum [3]: about 13 minutes

CC(C)C[C@H](NC(=O)[C@H](CC(=O)O)NC(=O)[C@@H]1CCCCNC(=O)CC[C@H](NC(=O)[C@H](Cc2c[nH]c3ccccc23)NC(=O)[C@H](CCC(=O)O)NC(=O)[C@H](CCCCN)NC(=O)[C@@H]2CCCN2C(=O)[C@H](CO)NC(=O)[C@H](C)NC(=O)[C@H](CC(=O)O)NC(=O)[C@H](CCCCNC(=O)CC[C@H](NC(=O)CC[C@H](NC(=O)CCCCCCCCCCCCCCCCCC(=O)O)C(=O)O)C(=O)O)NC(=O)CNC(=O)[C@@H]2CCCN2C(=O)[C@H](CCCCN)NC(=O)[C@H](CCC(=O)O)NC(=O)[C@@H]2CCCN2C(=O)[C@H](CCCCN)NC(=O)[C@@H]2CCCN2)C(=O)N[C@@H](CCCNC(=N)N)C(=O)N[C@@H](Cc2ccc(O)cc2)C(=O)N[C@@H](Cc2ccc(O)cc2)C(=O)N1)C(=O)N[C@@H](CCCNC(=N)N)C(=O)N[C@@H](Cc1c[nH]cn1)C(=O)N[C@@H](Cc1ccc(O)cc1)C(=O)N[C@@H](CC(C)C)C(=O)N[C@@H](CC(N)=O)C(=O)N[C@@H](Cc1c[nH]c2ccccc12)C(=O)N[C@@H](CC(C)C)C(=O)N[C@H](C(=O)N[C@@H](CCCNC(=N)N)C(=O)N[C@@H](CCC(N)=O)C(=O)N[C@@H](CCCNC(=N)N)C(=O)N[C@@H](Cc1ccccc1)C(N)=O)[C@@H](C)O [Compound A39] (H-PKPEKPGK([γGlu-γGlu-C19 diacid])DASPKEWERYYKDLRHYLNWLTRQRF-NH2; lactam 16-20; N-terminus assumed)
Solubility (in Water, RT) [4]: 16 mg/mL
Stability (37° C./RT, T0: Mar. 25, 2020) [5]: 95.9

CC(C)C[C@H](NC(=O)[C@H](CC(=O)O)NC(=O)[C@H](CCCCN)NC(=O)[C@H](Cc1ccc(O)cc1)NC(=O)[C@H](Cc1ccc(O)cc1)NC(=O)[C@H](CCCNC(=N)N)NC(=O)[C@H](CC(N)=O)NC(=O)[C@H](Cc1c[nH]c2ccccc12)NC(=O)[C@H](CCC(=O)O)NC(=O)[C@H](CCC(=O)O)NC(=O)[C@@H]1CCCN1C(=O)[C@H](CO)NC(=O)[C@H](C)NC(=O)[C@H](CC(=O)O)NC(=O)[C@H](CCCCNC(=O)CC[C@H](NC(=O)CC[C@H](NC(=O)CCCCCCCCCCCCCCCCCCC(=O)O)C(=O)O)C(=O)O)NC(=O)CNC(=O)[C@@H]1CCCN1C(=O)[C@H](CCCCN)NC(=O)[C@H](CCC(=O)O)NC(=O)[C@@H]1CCCN1C(=O)[C@H](CCCCN)NC(=O)[C@@H]1CCCN1)C(=O)N[C@@H](CCCNC(=N)N)C(=O)N[C@@H](Cc1c[nH]cn1)C(=O)N[C@@H](Cc1ccc(O)cc1)C(=O)N[C@@H](CC(C)C)C(=O)N[C@@H](CC(N)=O)C(=O)N[C@@H](Cc1c[nH]c2ccccc12)C(=O)N[C@@H](CC(C)C)C(=O)N[C@H](C(=O)N[C@@H](CCCNC(=N)N)C(=O)N[C@@H](CCC(N)=O)C(=O)N[C@@H](CCCNC(=N)N)C(=O)N[C@@H](Cc1ccccc1)C(N)=O)[C@@H](C)O [Compound A19]
solubility ([4]; DI water, read-out: Solubility (in Water, RT)): 59 mg/mL
Stability (37° C./RT, T0: Mar. 25, 2020) [5]: 88.8
EC50 (human Y2 receptor): 0.0316 nM
EC50 (human Y5 receptor): 2 nM
